Assay results: PubChem BioAssay (NCI)
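The compound was tested at five concentrations on cells cultured in 96-well plates, with a 48-hour exposure period. GI50: concentration for 50% inhibition of growth. TGI: concentration producing complete growth inhibition.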

Columns and labels:
Experiment in all cases: DTP human tumour cell line panel, 48 h
OVCAR-8 ovarian = system: OVCAR-8 ovarian
SNB-75 CNS = system: SNB-75 CNS
786-0 renal = system: 786-0 renal
DU-145 prostate = system: DU-145 prostate
RPMI-8226 leukemia = system: RPMI-8226 leukemia
KM12 colon = system: KM12 colon
HCC-2998 colon = system: HCC-2998 colon
A549 NSCLC = system: A549 NSCLC
HT29 colon = system: HT29 colon
MCF7 breast = system: MCF7 breast

Row | Structure (SMILES) | GI50 (OVCAR-8 ovarian) [µM] | TGI (OVCAR-8 ovarian) [µM] | GI50 (SNB-75 CNS) [µM] | TGI (SNB-75 CNS) [µM] | GI50 (786-0 renal) [µM] | TGI (786-0 renal) [µM] | GI50 (DU-145 prostate) [µM] | TGI (DU-145 prostate) [µM] | GI50 (RPMI-8226 leukemia) [µM] | TGI (RPMI-8226 leukemia) [µM] | GI50 (KM12 colon) [µM] | TGI (KM12 colon) [µM] | GI50 (HCC-2998 colon) [µM] | TGI (HCC-2998 colon) [µM] | GI50 (A549 NSCLC) [µM] | TGI (A549 NSCLC) [µM] | GI50 (HT29 colon) [µM] | TGI (HT29 colon) [µM] | GI50 (MCF7 breast) [µM] | TGI (MCF7 breast) [µM]
1 | O=C(O)[C@@H]1CCCCN1Cc1cc2cc3c(cc2c2cc(OCc4ccccc4)ccc12)OCO3 | 6.62 | 29 | 2.96 | 8.91 | 18.9 | 44.9 | 5.19 | > 100 | 24 | 77.4 | 4.24 | 25.5 | 19.3 | 33.6 | 3.74 | 15.1 | 3.24 | 15.8 | 2.05 | 16.5
2 | COc1ccc(OC)c(C(=O)c2oc3ccc(Br)cc3c2N)c1 | 0.576 | 97.9 | 0.253 | 1.68 | 0.581 | 47.4 | 0.604 | 17.3 | 0.37 | 6.51 | 0.348 | 18.4 | 1.32 | 12.8 | 0.493 | > 54.6 | 0.326 | 10.7 | 0.289 | > 48.2
3 | COC(=O)c1c(C)[nH]c(/C=C2\N=C(c3ccc[nH]3)C=C2OC)c1C | 0.229 |  | 0.399 | 3.24 | 0.262 | 1.4 | 0.426 | > 100 | 0.856 | 4.98 | 0.0938 | 5.67 | 0.668 | 2.78 | 0.387 |  | 0.0339 | > 100 | 0.413 | 3.12
4 | COc1cc2c(c(OC)c1OC)-c1c(cc3c(c1OC)OCO3)C1OC2C(C)C1C (configuration not stated) (tested in a mixture with another compound) |  | > 100 |  | > 100 |  | > 100 |  | > 100 |  | > 100 |  | > 100 |  | > 100 |  | > 100 |  | > 100 |  | > 100
5 | C=C1CC[C@@H]2[C@](C)(COC(C)=O)[C@H](OC(C)=O)CC[C@@]2(C)[C@@H]1CC(Nc1ccc(S(=O)(=O)Nc2ncccn2)cc1)C1=CCOC1=O (some centres not stated) | 1.48 | 3.55 | 1.27 | 3.23 | 1.77 | 3.39 | 1.62 | 3.07 | 0.541 | 3.12 | 2.33 | 5.54 | 2.1 | 3.81 | 3.18 | 9.97 |  |  | 1.07 | 4.54
6 | CCc1oc2ccccc2c1C(=O)c1cc(I)c(O)c(I)c1 | 4.9 | 28.5 | 1.54 | 6.43 | 3.76 | 15.3 | 2.37 | 7.4 | 2.33 | 30.5 | 1.62 | 13 | 4.84 | 17.5 | 3.61 | 17.6 | 3.61 | 14.5 | 4.02 | 14.7
7 | Cc1ccc(C(=O)Nc2ccc(CN3CCN(C)CC3)c(C(F)(F)F)c2)cc1C#Cc1cnc(N)c2ccccc12 | 0.476 | 2.09 | 0.726 | 1.52 | 0.435 | 1.08 | 0.167 | 0.861 | 0.736 | 2.08 | 0.377 | 1.08 | 0.738 | 1.56 | 0.447 | 1.26 | 0.367 | 1.41 | 0.799 | 1.61
8 | O=C(/C(=C/c1cccc([N+](=O)[O-])c1)c1ccccc1)c1ccccc1 |  |  | 2.3 | 7.65 | 4.8 | 18.3 | 4.22 | 14.7 | 2.34 | 7.68 | 3.7 | 13.1 | 2.54 | 6.27 | 4.31 | 30.1 | 3.24 | 8.83 | 3.34 | 13.3
9 | C=C1C(=O)O[C@H]2[C@H]1CC/C(COC(=O)c1cc3ccccc3s1)=C\CC[C@@]1(C)O[C@@H]21 | 1.8 | 5.14 | 3.52 | 13.4 | 1.52 | 3.44 | 1.05 | 2.3 | 0.566 | 4.79 | 1.78 | 4.08 | 1.75 | 3.23 | 2.04 | 4.4 | 0.499 | 1.84 | 0.389 | 2.02
10 | C/C=C(\C)CC/C=C/CO[Si](C)(C)C(C)(C)C |  | > 100 |  | > 100 |  | > 100 |  | > 100 |  | > 100 |  | > 100 |  | > 100 |  | > 100 |  | > 100 |  | > 100
11 | O=C1/C(=C/c2ccc(O)cc2)CSc2ccc(Cl)cc21 | 11.1 | > 100 | 18.3 | 54.8 | 17.2 | 49.8 | 12.4 | 27.2 | 3.62 | > 100 | 3.59 | 15.7 | 13.6 | 30.1 | 32 | > 100 | 16.5 | 89.7 | 0.651 | 11
12 | Cc1nc(-c2ccccc2)c(-c2ccccc2)s1 |  | > 100 |  | > 100 |  | 50.8 |  | > 100 |  | 37.5 |  | 71.2 |  | 25.3 |  | 89 |  | 41.7 |  | 62.3
13 | Cc1ccc(NC(=O)NCCCOc2ccc(N3C(N)=NC(N)=NC3(C)C)cc2Cl)cc1S(=O)(=O)F | 7.85 | > 100 | 8.62 | 51.4 | 7.36 | > 100 | 6.04 | > 100 | 60.7 | > 100 | 6.29 | > 100 | 21.5 | > 100 | 2.83 | > 100 |  |  | 4.93 | > 100
